Data published in patent publication US6432924B1, “Method of treating disorders characterized by overexpression of cytidine deaminase or deoxycytidine deaminase” (East Carolina University, priority 1993, dated 2002).

What was measured:
HT-29SF cells [1] = test: HT-29SF subcutaneous xenograft, tumor volume on Day 29; assay type: in vivo, BALB/c nude mice
Protocol: In another experiment, thirty BALB/c nude mice received subcutaneous injections of 5×10^6 HT-29SF cells. Twelve of the animals received 600 mg/kg/day 5mAZC in the flank for 28 days. Eighteen animals received saline injections on the same schedule. On Day 29, the animals were sacrificed and the tumor volume was quantified by standard methods. The average tumor volume for the control group receiving saline was 509±292 mm . […] The results of Examples 2 and 3 show clearly that 5mAZC is activated in vitro and in vivo into molecular species exclusively toxic to tumor cells that overexpress cytidine deaminase.

[2] = system: HT-29SF (non cytidine deaminase producing)cells; test: Human tumor xenograft model, HT-29SF tumor (left scapular region); assay type: in vivo, Balb/C nu/nu mice; conditions: 150 mg/kg twice daily intraperitoneal, 5 weeks, N=2
Protocol: (§1) One of these mice received twice daily intraperitoneal doses of 150 mg/kg of 5mAZC. The other mouse received saline only. This treatment continued for 5 weeks, at which time the animals were euthanized and the solid tumors were dissected free and weighed.

HT-29SF cells [3] = test: Transwell culture, 5mAZC exposure of parent cells; assay type: cell-based, human; conditions: quintuplicate
Protocol: (§2) HT-29SF^CD cells are a subline of HT-29SF human colonic adenocarcinoma cells that were selected for overexpression of cytidine deaminase. HT-29SF cells were plated in the bottom compartment, and HT-29SF^CD cells in the top compartment of a “Transwell” culture dish (1,000 cells each). A semipermeable membrane separates the two compartments of the Transwell, such that any drug administered in the tissue culture media bathe both compartments equally. 5-mAZC was administered continuously for 72 hrs. at the indicated concentrations. The numbers in the x-axis indicate the concentration (in μM) at which 5mAZC was administered continuously for 72 hours. The numbers on the y-axis indicate the number of surviving cells. The circular (●) data points represent the dose response for the HT-29SF^CD cells. The square (▪) data points represent the dose response for the HT-29SF cells.
HT-29SF human adenocarcinoma cells naturally express a high level of cytidine deaminase (CD). HT-29SF^CD is a subline of the HT-29SF line that express even higher CD levels than normal (about 5.4 times the expression level of HT-29SF cells). In order to see whether cells that overexpress cytidine deaminase are more sensitive to 5mAZC than other cells, HT-29SF^CD cells were plated in the top compartment of a Transwell culture dish, while HT-29SF cells were placed in the bottom compartment (1000 cells each). […]

[4] = system: HT-29SF^CD (cytidine deaminase producing)cells; test: Human tumor xenograft model, HT-29SF^CD tumor (right scapular region); assay type: in vivo, Balb/C nu/nu mice; conditions: 150 mg/kg twice daily intraperitoneal, 5 weeks, N=2
Protocol: as §1

HT-29SF^CD cells = test: Transwell culture, 5mAZC exposure of cytidine deaminase overexpressing cells; assay type: cell-based, human; conditions: for Number of viable cells HT-29SF^CD: quintuplicate, Transwell
Protocol: as §2
HT-29SF human adenocarcinoma cells naturally express a high level of cytidine deaminase (CD). HT-29SF^CD is a subline of the HT-29SF line that express even higher CD levels than normal (about 5.4 times the expression level of HT-29SF cells). In order to see whether cells that overexpress cytidine deaminase are more sensitive to 5mAZC than other cells, HT-29SF^CD cells were plated in the top compartment of a Transwell culture dish, while HT-29SF cells were placed in the bottom compartment (1000 cells each). A semipermeable membrane separated the two compartments of the Transwell, such that drugs administered in the tissue culture media bathe both compartments equally. 5mAZC was administered continuously for 72 hrs at concentrations ranging from 0 μM to 50 μM. The results of this experiment confirm the idea that cells that highly overexpress CD are sensitive to 5mAZC.
Based upon the results obtained in example 1 above, a dose of 50 μM 5mAZC was selected for more in-depth analysis. Two experiments were performed, in quintuplicate, in the same Transwell dishes, containing the HT-29SF cells and the HT-29SF^CD cells in compartments separated only by a membrane permeable to 5mAZC.

[5] = Experiment 1, 50 μM 5mAZC, 1000 cells plated

`Cc1cn([C@H]2C[C@H](N=[N+]=[N-])[C@@H](CO)O2)c(=O)nc1N` [5mAZC, 5-methyl-2′,3′-dideoxy-3′-azidocytidine] was tested, and the “average reduction in size (tumor volume vs saline control)” value (HT-29SF cells [1]; 600 mg/kg/day for 28 days) was 46%, the average tumor volume (HT-29SF cells [1]; 600 mg/kg/day in the flank for 28 days, saline control 509±292) was 273±97 mm^3 and the “tumor weight HT-29SF+5mAZC” value [2] was 1.02 ± 0.13 g. The “Number of viable cells HT-29SF” value (HT-29SF cells [3]; [5]) was 797 ± 68, the “Number of viable cells HT-29SF” value (HT-29SF cells [3]; second experiment, 50 μM 5mAZC) was 867.2 ± 29.4 and the “tumor weight HT-29SF^CD+5mAZC” value [4] was 0.22 g. The “Number of viable cells HT-29SF^CD” value (HT-29SF^CD cells; [5]) was 33.8 ± 17.1, the “sensitivity of cells that highly overexpress CD to 5mAZC (number of surviving cells, FIG. 1)” value (HT-29SF^CD cells; HT-29SF^CD cells, 0 μM to 50 μM continuously for 72 hrs) was “sensitive” and the “Number of viable cells HT-29SF^CD” value (HT-29SF^CD cells; second experiment (head prints Example 2), 50 μM 5mAZC) was 45.4 ± 15.6.
